Values of other authors as cited in patent US8338613B2, “Process for the preparation of bidentate schiff base ruthenium catalysts containing a salicylaldimine-type ligand” (RIMTEC Corporation, priority 2009, dated 2012).

Settings: in water (for Ag2CO3)

pKb, about 3.69:
O=C([O-])[O-].[Cu+2] [CuCO3], O=C([O-])[O-].[K+].[K+] [K2CO3], O=C([O-])[O-].[Li+].[Li+] [Li2CO3], O=C([O-])[O-].[Na+].[Na+] [Na2CO3]
